According to patent US20140094462A1, “SONIC HEDGEHOG MODULATORS” (priority 2009, published 2014):
pKd: −log10 of the molar value.

test system: not given; assay: not given; details: from C=CCCC(=O)N[C@@H]1c2ccccc2C[C@H]1OC(=O)[C@H](C)CC=C; rcm bond; DCM

SMILES | ring closure, yield of all isomers [%]
C[C@@H]1C/C=C/CCC(=O)N[C@@H]2c3ccccc3C[C@H]2OC1=O | 61.8

same assay, conditions: from C=CCCC(=O)N[C@@H](C)COC(=O)[C@H](C)CC=C; rcm bond; toluene; 3 steps

SMILES | ring closure, yield of all isomers [%]
C[C@@H]1C/C=C/CCC(=O)N[C@@H](C)COC1=O | 35

molecular target: T1, ShhN protein (Homo sapiens, UniProt Q15465); assay: Surface Plasmon Resonance (SPR) protein binding assay on immobilized ShhN; details: SPR, Biacore T100, ShhN immobilized on CM4 chip, 25° C., compound 0.78 μM-25 μM; read-out: KD
T1 construct: auto-cleavage of full length Shh into an active 20 kD N-terminal fragment (ShhN); purchased R&D Systems
Experimental: Biacore™ T100 (GE Healthcare, Uppsala, Sweden) was used to perform the experiments described herein. Sensor surface preparation and interaction analyses experiments were performed at 25° C.
Control surfaces were prepared similarly without protein derivatization and were utilized as a reference surfaces for compound binding experiments.
Zero concentration blank buffer cycles were included as negative control samples.
Data analysis was carried out using Biacore T100 evaluation software v1.1.1. […] Solvent correction was then applied as described previously.

T1 sequence (Q15465 24-197 limits assumed, species assumed): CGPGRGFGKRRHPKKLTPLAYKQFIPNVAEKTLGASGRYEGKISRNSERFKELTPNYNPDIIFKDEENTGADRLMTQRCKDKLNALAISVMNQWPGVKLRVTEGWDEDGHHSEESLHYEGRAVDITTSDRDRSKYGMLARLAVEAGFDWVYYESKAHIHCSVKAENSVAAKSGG

pKd | SMILES
< 4.00 | O=C(C[C@@H]1C/C=C/CCC(=O)O[C@H](c2ccccc2)CNC1=O)NCCc1ccc(Cl)cc1 [EL]
4.00 to 6.00 | COc1ccc(CNC(=O)C[C@@H]2C/C=C/CCC(=O)O[C@H](c3ccccc3)CNC2=O)cc1 [EQ]
4.00 to 6.00 | O=C(C[C@@H]1C/C=C/CCC(=O)N[C@@H]2c3ccccc3C[C@@H]2OC1=O)NCc1ccc(Cl)cc1 [Example BJ, N-(4-chlorobenzyl)-2-((3S,10aR,15aS,E)-2,9-dioxo-2,3,4,7,8,9,10,10a,15,15a-decahydroindeno[2,1-b][1,4]oxaazacyclododecin-3-yl)acetamide]
6.00 to 7.00 | C[C@@H]1C/C=C/CCC(=O)N[C@@H]2c3ccccc3C[C@@H]2OC1=O [Example BV, (3R,10aR,15aS,E)-3-methyl-3,4,7,8,10,10a,15,15a-octahydroindeno[2,1-b][1,4]oxaazacyclododecine-2,9-dione]
6.00 to 7.00 | C[C@@H]1C/C=C/C[C@@H](CC(=O)NCc2ccc(Cl)cc2)C(=O)NC[C@@H](c2ccccc2)OC1=O [Example EA, N-(4-chlorobenzyl)-2-((2R,6S,11R,E)-11-methyl-5,12-dioxo-2-phenyl-1-oxa-4-azacyclododec-8-en-6-yl)acetamide]
4.00 to 6.00 | N[C@H]1C/C=C/C[C@@H](CC(=O)NCc2ccc(Cl)cc2)C(=O)NC[C@@H](c2ccccc2)OC1=O [Example EB, 2-((2R,6S,11S,E)-11-amino-5,12-dioxo-2-phenyl-1-oxa-4-azacyclododec-8-en-6-yl)-N-(4-chlorobenzyl)acetamide]
> 7.00 | O=C(C[C@@H]1C/C=C/C[C@H](O)C(=O)O[C@H](c2ccccc2)CNC1=O)NCc1ccc(Cl)cc1 [Example EC, N-(4-chlorobenzyl)-2-((2R,6S,11S,E)-11-hydroxy-5,12-dioxo-2-phenyl-1-oxa-4-azacyclododec-8-en-6-yl)acetamide]
< 4.00 | C[C@H]1C/C=C\C[C@@H](CC(=O)NCc2ccc(Cl)cc2)C(=O)OC[C@@H](c2ccccc2)NC1=O [Example EE, N-(4-chlorobenzyl)-2-((3R,6S,11S,Z)-6-methyl-5,12-dioxo-3-phenyl-1-oxa-4-azacyclododec-8-en-11-yl)acetamide]
< 4.00 | COc1ccccc1[C@@H]1COC(=O)[C@H](CC(=O)NCc2ccc(Cl)cc2)C/C=C/CCC(=O)N1 [Example EY, N-(4-chlorobenzyl)-2-((3R,11S,E)-3-(2-methoxyphenyl)-5,12-dioxo-1-oxa-4-azacyclododec-8-en-11-yl)acetamide]
< 4.00 | C[C@H]1[C@@H](c2ccccc2)OC(=O)CC/C=C\C[C@@H](CC(=O)NCc2ccc(Cl)cc2)C(=O)N1C [Example EZ, N-(4-chlorobenzyl)-2-((2R,3S,6S,Z)-3,4-dimethyl-5,12-dioxo-2-phenyl-1-oxa-4-azacyclododec-8-en-6-yl)acetamide]
< 4.00 | C[C@@H]1NC(=O)[C@H](CC(=O)NCc2ccc(Cl)cc2)C/C=C/CCC(=O)O[C@@H]1c1ccccc1 [FP, N-(4-chlorobenzyl)-2-((2R,3S,6S,E)-3-methyl-5,12-dioxo-2-phenyl-1-oxa-4-azacyclododec-8-en-6-yl)acetamide]
6.00 to 7.00 | CC(C)[C@@H]1COC(=O)[C@H](CC(=O)NCc2ccc(Cl)cc2)C/C=C/CCC(=O)N1 [FQ, N-(4-chlorobenzyl)-2-((3R,11S,E)-3-isopropyl-5,12-dioxo-1-oxa-4-azacyclododec-8-en-11-yl)acetamide]
4.00 to 6.00 | CCCC[C@@H]1COC(=O)[C@H](CC(=O)NCc2ccc(Cl)cc2)C/C=C/CCC(=O)N1 [FR, 2-((3R,11S,E)-3-butyl-5,12-dioxo-1-oxa-4-azacyclododec-8-en-11-yl)-N-(4-chlorobenzyl)acetamide]
4.00 to 6.00 | O=C(C[C@@H]1C/C=C/CCC(=O)N[C@H](Cc2ccccc2)COC1=O)NCc1ccc(Cl)cc1 [FS, 2-((3R,11S,E)-3-benzyl-5,12-dioxo-1-oxa-4-azacyclododec-8-en-11-yl)-N-(4-chlorobenzyl)acetamide]
4.00 to 6.00 | O=C(C[C@@H]1C/C=C/CCC(=O)N2CCC[C@H]2COC1=O)NCc1ccc(Cl)cc1 [FT, N-(4-chlorobenzyl)-2-((4S,14aS,E)-3,10-dioxo-3,4,5,8,9,10,12,13,14,14a-decahydro-1H-pyrrolo[2,1-c][1,4]oxaazacyclododecin-4-yl)acetamide]
< 4.00 | O=C(C[C@@H]1C/C=C/CCC(=O)N[C@H](C2CCCCC2)COC1=O)NCc1ccc(Cl)cc1 [FU, N-(4-chlorobenzyl)-2-((3R,11S,E)-3-cyclohexyl-5,12-dioxo-1-oxa-4-azacyclododec-8-en-11-yl)acetamide]
> 7.00 | CC(C)(C)OC(=O)C[C@@H]1C/C=C/CCC(=O)N[C@@H]2c3ccccc3C[C@@H]2OC1=O [FW, tert-butyl 2-((3S,10aR,15aS,E)-2,9-dioxo-2,3,4,7,8,9,10,10a,15,15a-decahydroindeno[2,1-b][1,4]oxaazacyclododecin-3-yl)acetate]

The next lines start with the compound.

SMILES | pKd
CC(C)c1ccc(CNC(=O)C[C@@H]2C/C=C/CCC(=O)O[C@H](c3ccccc3)CNC2=O)cc1 [EJ] | 4.00 to 6.00
O=C(C[C@@H]1C/C=C/CCC(=O)O[C@H](c2ccccc2)CNC1=O)NCc1ccc(Cl)c(C(F)(F)F)c1 [EK] | < 4.00
O=C(C[C@@H]1C/C=C/CCC(=O)O[C@H](c2ccccc2)CNC1=O)Nc1ccc(Cl)cc1 [EM] | 4.00 to 6.00
O=C(C[C@@H]1C/C=C/CCC(=O)O[C@H](c2ccccc2)CNC1=O)NCc1ccccc1 [EN] | 4.00 to 6.00
O=C(C[C@@H]1C/C=C/CCC(=O)O[C@H](c2ccccc2)CNC1=O)NCc1cccc(Cl)c1 [EO] | < 4.00
CN(Cc1ccc(Cl)cc1)C(=O)C[C@@H]1C/C=C/CCC(=O)O[C@H](c2ccccc2)CN(C)C1=O [EP] | < 4.00
CN1CCN(C(=O)C[C@@H]2C/C=C/CCC(=O)O[C@H](c3ccccc3)CNC2=O)CC1 [ET] | 4.00 to 6.00
O=C1CC/C=C/C[C@@H](CC(=O)N2CCN(c3ncccn3)CC2)C(=O)NC[C@@H](c2ccccc2)O1 [EU] | 4.00 to 6.00
O=C(C[C@@H]1C/C=C/CCC(=O)O[C@H](c2ccccc2)CN(Cc2ccccc2)C1=O)NCc1ccc(Cl)cc1 [EV] | < 4.00
O=C(C[C@@H]1C/C=C/CCC(=O)O[C@H](c2ccccc2)CNC1=O)NC(c1ccccc1)c1ccccc1 [EW] | < 4.00
N[C@@H]1C/C=C/CCC(=O)N[C@H](c2ccccc2)COC1=O [Example AC, (3R,11R,E)-11-amino-3-phenyl-1-oxa-4-azacyclododec-8-ene-5,12-dione] | 4.00 to 6.00
C[C@H]1[C@@H](c2ccccc2)OC(=O)CC[C@H](O)[C@@H](O)C[C@@H](CC(=O)NCc2ccc(Cl)cc2)C(=O)N1C [Example BB, N-(4-chlorobenzyl)-2-((2R,3S,6S,8S,9S)-8,9-dihydroxy-3,4-dimethyl-5,12-dioxo-2-phenyl-1-oxa-4-azacyclododecan-6-yl)acetamide] | 4.00 to 6.00
C[C@@H]1CCCCCC(=O)OC[C@@H]2CCCN2C1=O [Example BE, (9R,14aS)-9-methyldecahydro-1H-pyrrolo[2,1-c][1,4]oxaazacyclododecine-3,10-dione] | 4.00 to 6.00
CN1C[C@@H](c2ccccc2)OC(=O)CC/C=C/C[C@@H](Cc2ccc(Cl)cc2)C1=O [Example BR, (2R,6S,E)-6-(4-chlorobenzyl)-4-methyl-2-phenyl-1-oxa-4-azacyclododec-8-ene-5,12-dione] | < 4.00
C[C@@H]1C[C@H](O)[C@@H](O)CCC(=O)N[C@H](c2ccccc2)COC1=O [Example BU, (3R,8S,9S,11R)-8,9-dihydroxy-11-methyl-3-phenyl-1-oxa-4-azacyclododecane-5,12-dione] | 4.00 to 6.00
O=C(C[C@@H]1C/C=C/C[C@H](Cc2ccccc2)C(=O)N[C@H](c2ccccc2)COC1=O)NCc1ccc(Cl)cc1 [Example ED, 2-((3R,6R,11S,E)-6-benzyl-5,12-dioxo-3-phenyl-1-oxa-4-azacyclododec-8-en-11-yl)-N-(4-chlorobenzyl)acetamide] | < 4.00
CN1C[C@@H](c2ccccc2)OC(=O)CC/C=C/C[C@@H](CC(=O)NCC2CCOCC2)C1=O [Example EX, 2-((2R,6S,E)-4-methyl-5,12-dioxo-2-phenyl-1-oxa-4-azacyclododec-8-en-6-yl)-N-((tetrahydro-2H-pyran-4-yl)methyl)acetamide] | 4.00 to 6.00
C[C@H]1[C@@H](c2ccccc2)OC(=O)CC/C=C/C[C@@H](CC(=O)NCCCC(F)(F)F)C(=O)N1C [Example FA, 2-((2R,3S,6S,E)-3,4-dimethyl-5,12-dioxo-2-phenyl-1-oxa-4-azacyclododec-8-en-6-yl)-N-(4,4,4-trifluorobutyl)acetamide] | < 4.00
O=C(C[C@@H]1CCCCCC(=O)OC[C@@H]2CCCN2C1=O)NCc1ccc(Cl)cc1 [Example FB, N-(4-chlorobenzyl)-2-((9S,14aS)-3,10-dioxododecahydro-1H-pyrrolo[2,1-c][1,4]oxaazacyclododecin-9-yl)acetamide] | 4.00 to 6.00
CC(C)(C)OC(=O)C[C@@H]1C/C=C/CCC(=O)N[C@H](c2ccc(Cl)cc2)COC1=O [FV] | > 7.00
CC(C)(C)OC(=O)C[C@@H]1C/C=C/CCC(=O)N[C@H](c2ccc(F)cc2)COC1=O [FX] | > 7.00
COc1ccccc1[C@@H]1COC(=O)[C@H](CC(=O)OC(C)(C)C)C/C=C/CCC(=O)N1 [FY] | > 7.00
O=C(C[C@@H]1C/C=C/CCC(=O)N[C@H](c2ccccc2)COC1=O)NCC1CCOCC1 [FZ, 2-((3R,11S,E)-5,12-dioxo-3-phenyl-1-oxa-4-azacyclododec-8-en-11-yl)-N-((tetrahydro-2H-pyran-4-yl)methyl)acetamide] | 4.00 to 6.00
O=C1CC/C=C/CCC(=O)OC[C@@H](c2ccccc2)N1 [F] | > 7.00
